Results reported in patent publication US20070293472A1, “Novel 14 and 15 Membered Ring Compounds” (Glaxo Group Limited, priority 2003, published 2007).
Where a name gives a salt, the structure may show the parent alone.

Tests used:
Experiment in all cases: MIC, standard broth dilution method in microtitre
Assay type in all cases: cell-based
[1] = system: S. pneumoniae SP030; conditions: Streptococcus pneumoniae
Protocol: (§1) Using a standard broth dilution method in microtitre, compounds were tested for antibacterial activity. The compounds in the above examples gave minimum inhibitory concentrations (MICs) less than 1 microgram per millilitre against erythromycin-sensitive and erythromycin-resistant strains of Streptococcus pneumoniae and Streptococcus pyogenes.
(§2) In addition, the MIC (μg/mL) of test compounds against various organisms was determined including:
(§3) S. aureus Smith ATCC 13709, S. pneumoniae SP030, S. pyogenes 3565, E. faecalis ATCC 29212, H. influenzae ATCC 49247, M. catarrhalis ATCC 23246.

[2] = system: S. aureus Smith ATCC 13709; conditions: Staphylococcus aureus, ATCC13709
Protocol: as §1, §2, §3

[3] = system: E. faecalis ATCC 29212; conditions: Enterococcus faecalis, ATCC29212
Protocol: as §1, §2, §3

[4] = system: S. pyogenes 3565; conditions: Streptococcus pyogenes
Protocol: as §1, §2, §3

[5] = system: erythromycin-resistant strains of Streptococcus pyogenes
Protocol: as §1

[6] = system: erythromycin-resistant strains of Streptococcus pneumoniae
Protocol: as §1

[7] = system: H. influenzae ATCC 49247; conditions: Haemophilus influenzae, ATCC49247
Protocol: as §1, §2, §3

[8] = system: M. catarrhalis ATCC 23246; conditions: Moraxella catarrhalis, ATCC23246
Protocol: as §1, §2, §3

Structure (SMILES) | MIC [1] [µg/mL] | MIC [2] [µg/mL] | MIC [3] [µg/mL] | MIC [4] [µg/mL] | MIC [5] [µg/mL] | MIC [6] [µg/mL] | MIC [7] [µg/mL] | MIC [8] [µg/mL]
CC[C@H]1OC(=O)[C@H](C)[C@@H](O[C@H]2C[C@@](C)(OC)[C@@H](OC(=O)CCNCCCc3cc4c(cc3F)c(=O)c(C(=O)O)cn4CC)[C@H](C)O2)[C@H](C)[C@@H](O[C@@H]2O[C@H](C)C[C@H](N(C)C)[C@H]2O)[C@](C)(OC)C[C@@H](C)C(=O)[C@H](C)[C@@H](O)[C@]1(C)O [Example 1, 4″-O-{3-[3-(3-Carboxy-1,4-dihydro-1-ethyl-6-fluoro-4-oxo-7-quinolinyl)propylamino]propionyl}-6-O-methylerythromycin A] | ≤ 1 | ≤ 1 | ≤ 1 | ≤ 1 |  |  |  | 
CC[C@@H]1OC(=O)[C@H](C)[C@H](O[C@@H]2C[C@](C)(OC)[C@H](OC(=O)CCNCCCc3ccc4c(c3)c(=O)c(C(=O)O)cn4CC)[C@H](C)O2)[C@@H](C)[C@H](O[C@@H]2O[C@H](C)C[C@H](N(C)C)[C@@H]2O)[C@](C)(O)C[C@H](C)CN(C)[C@@H](C)[C@H]2OC(=O)O[C@@]12C [Example 6, 4″-O-{3-[3-(3-Carboxy-1-dihydro-1-ethyl-4-oxo-6-quinolinyl)propylamino]propionyl}-azithromycin-11,12-carbonate] | ≤ 1 | ≤ 1 | ≤ 1 | ≤ 1 | ≤ 0.25 | ≤ 0.25 | ≤ 2 | ≤ 2
CC[C@@H]1OC(=O)[C@H](C)[C@H](O[C@@H]2C[C@](C)(OC)[C@H](OC(=O)CCNCCCc3ccc4c(c3)c(=O)c(C(=O)O)cn4CC)[C@H](C)O2)[C@@H](C)[C@H](O[C@@H]2O[C@H](C)C[C@H](N(C)C)[C@@H]2O)[C@](C)(OC)C[C@H](C)C(=O)[C@@H](C)[C@H]2NC(=O)O[C@@]12C [Example 7, 4″-O-{3-[3-(3-Carboxy-1,4-dihydro-1-ethyl-4-oxo-6-quinolinyl)propylamino]-propionyl}-6-O-methyl-11-desoxy-11-(R)-amino-erythromycin A 11,12-carbamate diformate salt] |  |  |  |  | ≤ 0.25 | ≤ 0.25 | ≤ 2 | ≤ 2
CC[C@@H]1OC(=O)[C@H](C)[C@H](O[C@@H]2C[C@](C)(OC)[C@H](OC(=O)CCNCCCc3ccc4c(c3)c(=O)c(C(=O)OC)cn4CC)[C@H](C)O2)[C@@H](C)[C@H](O[C@@H]2O[C@H](C)C[C@H](N(C)C)[C@@H]2O)[C@](C)(OC)C[C@H](C)C(=O)[C@@H](C)[C@H]2NC(=O)O[C@@]12C [Example 8, 4″-O-{3-[3-(3-Carboxy-1,4-dihydro-1-ethyl-4-oxo-6-quinolinyl)propylamino]propionyl}-6-O-methyl-11-desoxy-11-(R)-amino-erythromycin A 11,12-carbamate methyl ester diformate salt] | ≤ 1 | ≤ 1 | ≤ 1 | ≤ 1 | ≤ 0.25 | ≤ 0.25 |  | 

The next lines start with the values.

MIC [1] [µg/mL] | MIC [2] [µg/mL] | MIC [3] [µg/mL] | MIC [4] [µg/mL] | MIC [5] [µg/mL] | MIC [6] [µg/mL] | MIC [7] [µg/mL] | MIC [8] [µg/mL] | Structure (SMILES)
≤ 1 | ≤ 1 | ≤ 1 | ≤ 1 |  |  |  |  | CC[C@@H]1OC(=O)[C@H](C)[C@H](O[C@@H]2C[C@](C)(OC)[C@H](OC(=O)CCNCCCc3cc4c(cc3F)c(=O)c(C(=O)O)cn4CC)[C@H](C)O2)[C@@H](C)[C@H](O[C@@H]2O[C@H](C)C[C@H](N(C)C)[C@@H]2O)[C@](C)(O)C[C@H](C)CN(C)[C@H](C)[C@@H](O)[C@]1(C)O [Example 2, 4″-O-{3-[3-(3-Carboxy-1,4-dihydro-1-ethyl-6-fluoro-4-oxo-7-quinolinyl)propylamino]propionyl}-azithromycin tris trifluoroacetate salt]
 |  |  |  | ≤ 0.25 | ≤ 0.25 |  |  | CC[C@@H]1OC(=O)[C@H](C)[C@H](O[C@@H]2C[C@](C)(OC)[C@H](OC(=O)CCNCCCc3ccc4c(c3)c(=O)c(C(=O)O)cn4CC)[C@H](C)O2)[C@@H](C)[C@H](O[C@@H]2O[C@H](C)C[C@H](N(C)C)[C@@H]2O)[C@](C)(O)C[C@H](C)CN(C)[C@H](C)[C@@H](O)[C@]1(C)O [Example 5, 4″-O-{3-[3-(3-Carboxy-1,4-dihydro-1-ethyl-4-oxo-6-quinolinyl)propylamino]propionyl}-azithromycin]
